Values after ≈ are worked out from the molar mass of the structure shown.
Assay: Solubility of 5′-guanylic acid in aqueous sodium chloride solutions (saturated mixed solution, supernatant concentration)
Settings: for Concentration of 5′-Guanylic acid in mixed solution: 25° C.; for 5′-Guanylic acid concentration (g/L) in mixed solution: 40° C.; for solubility thermodynamic: aqueous sodium chloride solution, saline or isotonic
[1] = sodium chloride concentration 300 g/L, supernatant of saturated solution
[2] = sodium chloride concentration 310 g/L, supernatant of saturated solution
[3] = sodium chloride concentration 350 g/L, supernatant of saturated solution
[4] = sodium chloride concentration 360 g/L, supernatant of saturated solution
[5] = sodium chloride concentration 400 g/L, sodium chloride crystals precipitated

Method: With the aqueous 5′-guanylic acid solution added to different concentrations of aqueous sodium chloride solutions at temperature 40° C. and 25° C., the solubility of 5′-guanylic acid was examined.
Specifically, the aqueous 5′-guanylic acid solution was sufficiently dissolved in each of the aqueous sodium chloride solutions at 40° C. and 25° C., respectively, to prepare saturated solutions. As a result, 160 g/L to 360 g/L saturated solution of sodium chloride were prepared. […] Then, the concentrations (g/L) of 5′-guanylic acid in supernatants obtained by centrifuging each of the saturated solutions, i.e., the mixed solutions were measured.

Concentration of 5′-Guanylic acid in mixed solution [1]: 18100 µg/mL
Concentration of 5′-Guanylic acid in mixed solution [2]: 18200 µg/mL
Concentration of 5′-Guanylic acid in mixed solution [3]: 18200 µg/mL
Concentration of 5′-Guanylic acid in mixed solution [4]: 18200 µg/mL
Concentration of 5′-Guanylic acid in mixed solution [5]: 18300 µg/mL
5′-Guanylic acid concentration (g/L) in mixed solution [1]: 49.9 g/L
5′-Guanylic acid concentration (g/L) in mixed solution [2]: 49.5 g/L
5′-Guanylic acid concentration (g/L) in mixed solution [3]: 48.9 g/L
5′-Guanylic acid concentration (g/L) in mixed solution [4]: 49.8 g/L
5′-Guanylic acid concentration (g/L) in mixed solution [5]: 49.6 g/L
solubility thermodynamic (25 °C, Concentration of 5′-Guanylic acid in mixed solution (g/L), sodium chloride concentration 160 g/L, supernatant of saturated solution): 40.1 mg/mL (≈ 110 mM)
solubility thermodynamic (25 °C, Concentration of 5′-Guanylic acid in mixed solution (g/L), sodium chloride concentration 200 g/L, supernatant of saturated solution): 26.4 mg/mL (≈ 72.7 mM)
solubility thermodynamic (25 °C, Concentration of 5′-Guanylic acid in mixed solution (g/L), sodium chloride concentration 230 g/L, supernatant of saturated solution): 22.2 mg/mL (≈ 61.1 mM)
solubility thermodynamic (25 °C, Concentration of 5′-Guanylic acid in mixed solution (g/L), sodium chloride concentration 280 g/L, supernatant of saturated solution): 19.2 mg/mL (≈ 52.9 mM)
solubility thermodynamic (25 °C, Concentration of 5′-Guanylic acid in mixed solution (g/L), sodium chloride concentration 420 g/L, sodium chloride crystals precipitated): 18.2 mg/mL (≈ 50.1 mM)
solubility thermodynamic (40 °C, 5′-Guanylic acid concentration (g/L) in mixed solution, sodium chloride concentration 160 g/L, supernatant of saturated solution): 86.5 mg/mL (≈ 238 mM)
solubility thermodynamic (40 °C, 5′-Guanylic acid concentration (g/L) in mixed solution, sodium chloride concentration 200 g/L, supernatant of saturated solution): 62.7 mg/mL (≈ 173 mM)
solubility thermodynamic (40 °C, 5′-Guanylic acid concentration (g/L) in mixed solution, sodium chloride concentration 230 g/L, supernatant of saturated solution): 57.1 mg/mL (≈ 157 mM)
solubility thermodynamic (40 °C, 5′-Guanylic acid concentration (g/L) in mixed solution, sodium chloride concentration 280 g/L, supernatant of saturated solution): 50.1 mg/mL (≈ 138 mM)
solubility thermodynamic (40 °C, 5′-Guanylic acid concentration (g/L) in mixed solution, sodium chloride concentration higher than 400 g/L, sodium chloride crystals precipitated): 48.7 mg/mL (≈ 134 mM)
SMILES: Nc1nc2c(ncn2[C@@H]2O[C@H](COP(=O)(O)O)[C@@H](O)[C@H]2O)c(=O)[nH]1 [5′-Guanylic acid, 5′-guanylic acid]

— patent US12479879B2, “Method for preparing disodium 5′-guanylate heptahydrate crystal” (CJ CHEILJEDANG CORPORATION, priority 2019, dated 2025)
